Experimental findings from article PMC10180054, “Design, Synthesis and Biological Evaluation of Novel Pleuromutilin Derivatives Containing 6-Chloro-1-R-1H-pyrazolo[3,4-d]pyrimidine-4-amino Side Chain” (Molecules, 2023) are described below.

By melting point is commonly meant the temperature, or range, at which the solid turns liquid. The term MBC denotes the lowest tested concentration that kills the bacteria rather than only halting them. Low readings indicate more potent killing, high ones less potent killing. One may read the MIC as the lowest concentration found to suppress growth. High values mean a less susceptible organism, low ones a more susceptible organism.

Each structure is given as a SMILES string. Converted amounts (≈) assume the structure as drawn.

Series [1] deals with MRSA ATCC 43300. Kind of series: Constant concentration time–kill curves. The series is classed as cell-based, Staphylococcus aureus. Here is the method:
Time–kill kinetic assays were performed, which were used to investigate the in vitro bactericidal kinetic effect of compounds 12c, 19c, 22c and tiamulin.
Time–kill curve assays were established with the MIC value to investigate the antibacterial effect of constant drug concentration on MRSA. […] MRSA ATCC 43300 was incubated in MH broth at 37 °C for 4.5 h and diluted to 1 × 10^6 CFU/mL in MH broth. The saline control group was subjected to the same schedule but 0.9% saline water was added instead of the test compound. All the samples were incubated in an oscillating thermostatic at 37 °C, and then 100 μL of the mixture was extracted to 900 μL of sterile saline (0.9%) at 0, 3, 6, 9, 12 and 24 h, respectively. Samples were serially diluted 10-fold in sterile saline (0.9%) and inoculated onto agar plates. The colonies were counted after incubation at 37 °C for 24 h. Three independent experiments were performed according to our previous work. Time–kill curves were constructed by plotting the log10 CFU per millilitre versus time, and the change in bacterial concentration was determined.

The subject of series [2] is MRSA ATCC 43300. Briefly: Post-antibiotic effect (PAE). Format: cell-based, Staphylococcus aureus. Here is the method: PAE has been considered as pharmacodynamic assistance which provides a reference for the rational formulation of dosing regimen. PAE refers to the temporary suppression of bacterial growth following transient antibiotic treatment. PAE assays were conducted for compounds 12c and 22c.
PAE is calculated from growth curves on the difference in time required for the number (1 log10 CFU/mL) of drug-exposed and unexposed microbes. […] The PAE values of compounds 12c and 22c increased with increasing incubation time.
PAE of compounds 12c and 22c on MRSA ATCC 43300 was determined using MH broth according to our previous work. The final concentration of MRSA was 1 × 10^6 CFU/mL by dilution with MH broth. Compounds 12c, 22c and tiamulin were supplemented in the suspension at a final concentration of 2 × MIC and 4 × MIC, respectively. The negative control group contained untreated MRSA bacterial cells. The test tubes were incubated with a 37 °C constant temperature vibration incubator for 1 and 2 h. After incubation, the test compound was removed from the sample by diluting 1000-fold with the preheated MH broth. Next, 100 μL of suspension from each culture was 10-fold diluted in sterile saline and inoculated on MH agar plates at 0, 2, 4, 6 and 8 h after inoculation. The number of colonies was calculated after incubation at 37 °C for 24 h. The experiments were performed in triplicate.

Series [3] concerns MRSA ATCC 43300. Kind of series: Neutropenic murine thigh infection model. Format: in vivo. The conditions noted are these: neutropenic mice, 20 mg/kg, 24 h after dosing, n = 6/group. The method, then:
Therefore, the in vivo efficacy of compounds 12c and 22c were assessed using the murine neutropenic thigh infection model. Mice groups treated with saline and tiamulin were chosen as the negative and positive controls.
Model experiments of neutropenic mouse thigh infection were manipulated as described in the literature. Female, six-week-old, specific-pathogen-free mice weighing approximately 23~26 g were used throughout the study. Mice were rendered neutropenic by injection of cyclophosphamide (Mead Johnson Pharmaceuticals, Evansville, IN) on day 4 (150 mg/kg) and day 1 (100 mg/kg) before the experiment. The neutrophil numbers in mice blood should be <0.1 × 10^9/L [34]. In total, 0.1 mL of MH broth of MRSA (10^7 CFU/mL) was inoculated into each thigh of the neutropenic mice. Mice were divided into 4 groups (6 mice per group), including control (sterile saline), compounds 12c, 22c and tiamulin groups. After 3 h post-infection, the corresponding drugs were injected into each mouse’s thigh. Mice were euthanized following intravenous injection for 24 h. Thigh tissue of each mouse was removed, collected, weighed and homogenized in 3 mL of ice sterile saline. Six ten-fold serial dilutions were performed and 25 μL of the bacterial solution from each tube was plated on MH agar plates. The resulting colonies were counted after 24 h incubation at 37 °C. The protocol for this study was reviewed and approved by the Institutional Animal Care and Use Committee of the South China Agricultural University.

The test system of a further series is S. aureus 144. Briefly: MIC/MBC by broth dilution (CLSI). The series is classed as cell-based. The conditions noted are these: Staphylococcus aureus; S. aureus 144 (clinical strain). In a few lines: (§1)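 CLSI broth dilution used twofold compound series from 64 to 0.0625 µg/mL (stocks in water with 2.5% DMSO and 2.5% Tween-80) and a final inoculum of 5 × 10^5 CFU/mL, in triplicate. For MBC, 25 µL from wells without visible growth was plated on MH agar and cultured 24 h at 37 °C.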

In another series the test system is S. aureus ATCC 29213. Briefly: MIC/MBC by broth dilution (CLSI). The conditions noted are these: Staphylococcus aureus, ATCC29213. Format: cell-based. A digest of the protocol:
as §1
In general terms: Broth dilution looks for growth in wells or tubes with falling amounts of substance.

The subject of a further series is S. aureus AD3. Kind of series: MIC/MBC by broth dilution (CLSI). The series is classed as cell-based. The conditions noted are these: Staphylococcus aureus; S. aureus AD3 (clinical strain). A digest of the protocol:
as §1

`C=C[C@]1(C)C[C@@H](OC(=O)CSc2ccc(Nc3nc(Cl)nc4c3cnn4-c3ccc(F)c(F)c3)cc2)[C@]2(C)[C@H](C)CC[C@]3(CCC(=O)[C@H]32)[C@@H](C)[C@@H]1O` [Compound 22c, 22-[4-(6-Chloro-1-(3,4-difluorophenyl)-1H-pyrazolo[3,4-d]pyrimidine-4-yl)amino-Phenylsulfanyl]-22-deoxypleuromutilin]: the melting point is 109 to 113 °C. In the series with MRSA ATCC 43300 [1] (2 × MIC, 24 h incubation), the “MRSA killed in time–kill assay” value is given as 99.99% and the “reduction of MRSA in time–kill assay” value is given as −4.47 log10 CFU/mL. For the same compound, the “reduction of MRSA in time–kill assay” value with MRSA ATCC 43300 [1] (4 × MIC) was −5.79 log10 CFU/mL. The “type of bactericidal kinetics” value with MRSA ATCC 43300 [1] (time–kill curves, 1 to 32 × MIC) is listed as “time-dependent”. In the series on MRSA ATCC 43300 [2] (2 × MIC, exposure for 1 h), the PAE is reported as 0.92 h. The compound further returned a PAE with MRSA ATCC 43300 [2] (2 × MIC, exposure for 2 h) of 2.18 h. The same compound gave a PAE in the series on MRSA ATCC 43300 [2] (4 × MIC, exposure for 1 h) of 0.93 h. This compound yielded a PAE in the series with MRSA ATCC 43300 [2] (4 × MIC, exposure for 2 h) of 2.68 h. For the same compound, the “reduction of MRSA load in thigh vs growth control” value in the series with MRSA ATCC 43300 [3] is −0.93 log10 CFU/mL. In the series on S. aureus 144, the MBC was determined as 1 µg/mL (≈ 1.33 µM) and the minimal inhibitory concentration (MIC) amounted to 0.5 µg/mL (≈ 0.666 µM). The compound further gave an MBC against S. aureus ATCC 29213 (S. aureus ATCC 29213) of 0.5 µg/mL (≈ 0.666 µM). This compound also registered an MIC against S. aureus ATCC 29213 (S. aureus ATCC 29213, broth dilution, 24 h, 37 °C) of 0.25 µg/mL (≈ 0.333 µM). In addition, in the series on S. aureus AD3, the MBC is 0.25 µg/mL (≈ 0.333 µM) and the minimal inhibitory concentration (MIC) amounted to 0.125 µg/mL (≈ 0.167 µM).
